Reference: PubChem BioAssay (NCI)
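Each compound was tested at five concentrations against cells in 96-well plates for 48 hours. GI50 marks 50% less growth. Definition used: TGI = concentration required for complete inhibition of growth.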

Experiments:
Assay in all cases: NCI tumour cell line growth inhibition, 48 h
[1] = test system: PC-3 prostate
[2] = test system: RXF 393 renal
[3] = test system: SR leukemia
[4] = test system: HCT-15 colon
[5] = test system: HOP-62 NSCLC
[6] = test system: HCC-2998 colon
[7] = test system: NCI-H23 lung
[8] = test system: SK-MEL-2 melanoma
[9] = test system: UO-31 renal
[10] = test system: M14 melanoma
[11] = test system: UACC-62 melanoma
[12] = test system: SW-620 colon
[13] = test system: IGROV1 ovarian
[14] = test system: OVCAR-4 ovarian
[15] = test system: MOLT-4 leukemia
[16] = test system: SNB-75 CNS
[17] = test system: OVCAR-8 ovarian
[18] = test system: HCT-116 colon
[19] = test system: NCI-H460 lung
[20] = test system: CCRF-CEM leukemia
[21] = test system: 786-0 renal
[22] = test system: A498 renal
[23] = test system: CAKI-1 renal
[24] = test system: SK-MEL-5 melanoma
[25] = test system: DU-145 prostate
[26] = test system: SF-268 CNS
[27] = test system: NCI-H226 lung
[28] = test system: SNB-19 CNS
[29] = test system: K-562 leukemia
[30] = test system: ACHN renal
[31] = test system: LOX IMVI melanoma
[32] = test system: UACC-257 melanoma
[33] = test system: SF-295 CNS
[34] = test system: EKVX NSCLC
[35] = test system: COLO 205 colon
[36] = test system: SK-OV-3 ovarian
[37] = test system: MCF7 breast
[38] = test system: U251 CNS
[39] = test system: T-47D breast
[40] = test system: HT29 colon
[41] = test system: NCI/ADR-RES ovarian
[42] = test system: RPMI-8226 leukemia
[43] = test system: MDA-MB-231 breast
[44] = test system: HL-60(TB) leukemia
[45] = test system: KM12 colon
[46] = test system: BT-549 breast
[47] = test system: SF-539 CNS
[48] = test system: HS 578T breast
[49] = test system: TK-10 renal
[50] = test system: MDA-MB-435
[51] = test system: HOP-92 NSCLC
[52] = test system: SK-MEL-28 melanoma
[53] = test system: OVCAR-3 ovarian
[54] = test system: SN12C renal
[55] = test system: OVCAR-5 ovarian
[56] = test system: NCI-H522 lung
[57] = test system: A549 NSCLC

CCNC(=S)Nc1c(C#N)c2n(c1C(=O)OCC)CCCCC2
TGI [1]: > 100000 nM
TGI [2]: > 100000 nM
TGI [3]: > 100000 nM
TGI [4]: > 100000 nM
TGI [5]: > 100000 nM
TGI [6]: > 100000 nM
TGI [7]: > 100000 nM
TGI [8]: > 100000 nM
TGI [9]: > 100000 nM
TGI [10]: > 100000 nM
TGI [11]: > 100000 nM
TGI [12]: > 100000 nM
TGI [13]: > 100000 nM
TGI [14]: > 100000 nM
TGI [15]: > 100000 nM
TGI [16]: > 100000 nM
TGI [17]: > 100000 nM
TGI [18]: > 100000 nM
TGI [19]: > 100000 nM
TGI [20]: > 100000 nM
TGI [21]: > 100000 nM
TGI [22]: > 100000 nM
TGI [23]: > 100000 nM
TGI [24]: > 100000 nM
TGI [25]: > 100000 nM
TGI [26]: > 100000 nM
TGI [27]: > 100000 nM
TGI [28]: > 100000 nM
TGI [29]: > 100000 nM
TGI [30]: > 100000 nM
TGI [31]: > 100000 nM
TGI [32]: > 100000 nM
TGI [33]: > 100000 nM
TGI [34]: > 100000 nM
TGI [35]: > 100000 nM
TGI [36]: > 100000 nM
TGI [37]: > 100000 nM
TGI [38]: > 100000 nM
TGI [39]: > 100000 nM
TGI [40]: > 100000 nM
TGI [41]: > 100000 nM
TGI [42]: > 100000 nM
TGI [43]: > 100000 nM
TGI [44]: > 100000 nM
TGI [45]: > 100000 nM
TGI [46]: > 100000 nM
TGI [47]: > 100000 nM
TGI [48]: > 100000 nM
TGI [49]: > 100000 nM
TGI [50]: > 100000 nM
TGI [51]: > 100000 nM
TGI [52]: > 100000 nM

Nc1ncnc2c1nc(N)n2C1OC(CO)C(O)C1O (stereo not given)
GI50 [1]: 1070 nM
TGI [1]: 8210 nM
GI50 [2]: 1450 nM
TGI [2]: 3360 nM
GI50 [3]: 524 nM
TGI [3]: 4380 nM
GI50 [53]: 892 nM
TGI [53]: 4750 nM
GI50 [4]: 433 nM
TGI [4]: 10700 nM
GI50 [5]: 311 nM
TGI [5]: 2710 nM
GI50 [6]: 320 nM
TGI [6]: 1660 nM
GI50 [7]: 309 nM
TGI [7]: 2230 nM
GI50 [8]: 720 nM
TGI [8]: 2920 nM
GI50 [9]: 295 nM
TGI [9]: 2820 nM
GI50 [10]: 110 nM
TGI [10]: 355 nM
GI50 [11]: 251 nM
TGI [11]: 1200 nM
GI50 [12]: 182 nM
TGI [12]: 1310 nM
GI50 [13]: 238 nM
TGI [13]: 863 nM
GI50 [14]: 1420 nM
TGI [14]: 7160 nM
GI50 [15]: 1760 nM
TGI [15]: > 24400 nM
GI50 [16]: 1880 nM
TGI [16]: 3700 nM
GI50 [17]: 630 nM
TGI [17]: 2980 nM
GI50 [18]: 302 nM
TGI [18]: 10500 nM
GI50 [54]: 418 nM
TGI [54]: 3210 nM
GI50 [19]: 454 nM
TGI [19]: 1930 nM
GI50 [20]: 1300 nM
TGI [20]: > 22900 nM
GI50 [55]: 221 nM
TGI [55]: 15400 nM
GI50 [21]: 1550 nM
TGI [21]: 3710 nM
GI50 [22]: 657 nM
TGI [22]: 1940 nM
GI50 [23]: 318 nM
TGI [23]: 1590 nM
GI50 [24]: 1250 nM
TGI [24]: 2610 nM
GI50 [25]: 401 nM
TGI [25]: 2090 nM
GI50 [26]: 930 nM
TGI [26]: 2810 nM
GI50 [27]: 1030 nM
TGI [27]: 3380 nM
GI50 [28]: 1340 nM
TGI [28]: 6280 nM
GI50 [29]: 271 nM
TGI [29]: > 100000 nM
GI50 [30]: 348 nM
TGI [30]: > 100000 nM
GI50 [31]: 212 nM
TGI [31]: 1170 nM
GI50 [56]: 809 nM
TGI [56]: 2610 nM
GI50 [32]: 229 nM
TGI [32]: 857 nM
GI50 [33]: 1780 nM
TGI [33]: 6090 nM
GI50 [34]: 231 nM
TGI [34]: 1270 nM
GI50 [35]: 142 nM
TGI [35]: 1160 nM
GI50 [36]: 520 nM
TGI [36]: 3450 nM
GI50 [37]: 389 nM
TGI [37]: 10400 nM
GI50 [38]: 1350 nM
TGI [38]: 7060 nM
GI50 [39]: 449 nM
TGI [39]: 2680 nM
GI50 [40]: 58.9 nM
TGI [40]: 1310 nM
GI50 [41]: 697 nM
TGI [41]: 3290 nM
GI50 [42]: 973 nM
TGI [42]: 6480 nM
GI50 [43]: 518 nM
TGI [43]: 4860 nM
GI50 [44]: 376 nM
TGI [44]: 3670 nM
GI50 [57]: 331 nM
TGI [57]: 2020 nM
GI50 [45]: 266 nM
TGI [45]: 867 nM
GI50 [46]: 1650 nM
TGI [46]: 3360 nM
GI50 [47]: 1880 nM
TGI [47]: 3980 nM
GI50 [48]: 2450 nM
TGI [48]: > 28400 nM
GI50 [49]: 458 nM
GI50 [50]: 153 nM
TGI [50]: 773 nM
GI50 [51]: 340 nM
TGI [51]: 1830 nM
GI50 [52]: 267 nM
TGI [52]: 1330 nM
